Reference: patent US7906491B2 (Univisitair Medisch Centrum Utrecht, priority 2002, dated 2011)
pEC50: −log10 of the molar value.

Tested on: Rap1
Assay: Rap1 activation assay in Ovcar3 cells
Format: cell-based
Method: A: 8-pCPT-2′-O-Me-cAMP stimulates cell adhesion. Upper panel: quantification of Ovcar3 cells adhering to fibronectin after treatment with increasing concentrations of 8-pCPT-2′-O-Me-cAMP. Lower panel: Ovcar3 cells were treated with increasing concentrations of 8-pCPT-2′-O-Me-cAMP for 15 min, cells were lysed and analyzed for activation of Rap1 (upper blot) and CREB (lower blot). Total Rap1 levels are shown (middle blot). B: 8-pCPT-2′-O-Me-cAMP increases the rate of cell adhesion. Upper panel: quantification of Ovcar3 cells adhering to fibronectin at various time points. Lower panel: cells were treated with 60 μM 8-pCPT-2′-O-Me-cAMP for the indicated times. Cell lysates were analyzed for activation of Rap1 (upper blot) and CREB (lower blot). Total levels of Rap1 in cell lysates are shown (middle blot). C: Ovcar3 cells were either pre-incubated at 37° C. for 30 min with the PKA inhibitor H-89 (10 μM) 30 min prior to seeding onto the wells (‘Short’) or H-89 was added 30 min prior to trypsinization and during the recovery period (‘Long’) and seeded onto wells in the absence or presence of 8-pCPT-2′-O-Me-cAMP (100 μM). Cells were allowed to adhere for 1 h. D, cAMP-induced adhesion to fibronectin is blocked by inhibitors of Rap1. Left panel: Ovcar3 cells were transiently transfected with either mock DNA, increasing concentrations of HA-Rap1GAP II (0.5, 1, 2 or 6 μg, respectively), HA-Rap1GAPI (6 μg) or HA-RBD of RalGDS (6 μg), respectively. Cells were treated with 8-Br-cAMP or 8-pCPT-2′-O-Me-cAMP and adhesion to fibronectin was determined. Right upper panel: luciferase counts of total input cells per well in the above experiment are shown. Right lower panel: expression of HA-Rap1GAPs in the above experiment is shown.
Rap activation assays were performed as described previously (16-18). […] Proteins were eluted with Laemmli sample buffer and analyzed by sodium dodecyl sulphate (SDS)-polyacrylamide gel electrophoresis and Western blotting using Rap1 antibodies. As a control, Rap1 levels in whole cell lysates were determined.

CO[C@@H]1[C@@H]2OP(=O)(O)OC[C@H]2O[C@H]1n1c(Sc2ccc(Cl)cc2)nc2c(N)ncnc21 [Compound I-007, 8-(4-chloro-phenylthio)-2′-O-methyladenosine-3′,5′-cyclic monophosphate]
Rap1 activation in time-course (60 μM, FIG. 7B): rapid and sustained Rap1 activation | pEC50 (Homo sapiens, OVCAR-3, 0.25 h, 15 min, FIG. 7A): ~4.52
